In brackets after ≈: the same amount, converted by molar mass. Values belong to the compound of their own block, whether it stands above or below them. Activity calls are given as the source filed them. The rule behind the calls is not given here.
Columns and labels:
[1] = tested on: Acanthamoeba castellanii; assay: Antiprotozoal activity against trophozoite stage of Acanthamoeba castellanii Neff ATCC 30010 after 72 to 120 hrs by Alamar Blue assay; format: functional; details: Acanthamoeba castellanii str. Neff
[2] = tested on: Toxoplasma gondii; assay: Antiprotozoal activity against tachyzoite stage of Toxoplasma gondii RH assessed as viability at 1 mM after 4 hrs by trypan blue exclusion assay relative to control; format: functional
[3] = tested on: Trypanosoma cruzi; assay: Trypanocidal activity against epimastigote stage of Trypanosoma cruzi CL Brener at 100 ug/mL after 72 hrs by beta-galactosidase reporter gene assay relative to control; format: functional
[4] = tested on: Trichomonas vaginalis; assay: Trichomonacidal activity against Trichomonas vaginalis JH31A at 100 ug/ml after 48 hrs by Neubauer chamber analysis relative to control; format: functional
[5] = tested on: Trichomonas vaginalis; assay: Trichomonacidal activity against Trichomonas vaginalis JH31A at 10 ug/ml after 24 hrs by Neubauer chamber analysis relative to control; format: functional
[6] = tested on: Toxoplasma gondii; assay: Antiprotozoal activity against tachyzoite stage of Toxoplasma gondii RH assessed as extrusion of cytoplasmic content by light microscopic analysis; format: functional, organism-based
[7] = tested on: Toxoplasma gondii; assay: Antiprotozoal activity against tachyzoite stage of Toxoplasma gondii RH assessed as viability at 100 uM after 4 hrs by trypan blue exclusion assay relative to control; format: functional
[8] = tested on: Trypanosoma cruzi; assay: Trypanocidal activity against epimastigote stage of Trypanosoma cruzi CL Brener at 10 ug/mL after 72 hrs by beta-galactosidase reporter gene assay relative to control; format: functional
[9] = tested on: Toxoplasma gondii; assay: Antiprotozoal activity against tachyzoite stage of Toxoplasma gondii RH assessed as viability at 200 uM after 4 hrs by trypan blue exclusion assay relative to control; format: functional
[10] = tested on: Trichomonas vaginalis; assay: Trichomonastatic activity against Trichomonas vaginalis JH31A at 10 ug/ml after 48 hrs by Neubauer chamber analysis relative to control; format: functional
[11] = tested on: Trypanosoma cruzi; assay: Trypanocidal activity against epimastigote stage of Trypanosoma cruzi CL Brener at 1 ug/mL after 72 hrs by beta-galactosidase reporter gene assay relative to control; format: functional
[12] = tested on: Trichomonas vaginalis; assay: Trichomonacidal activity against Trichomonas vaginalis JH31A at 100 ug/ml after 24 hrs by Neubauer chamber analysis relative to control; format: functional
[13] = tested on: Plasmodium falciparum; assay: Antimalarial activity against intraerythrocytic asexual stage of Plasmodium falciparum 3D7 assessed as inhibition of [G-3H]-hypoxanthine uptake by semiautomated microdilution method; format: functional, organism-based
[14] = tested on: J774; assay: Cytotoxicity against mouse J774 cells at 100 ug/mL after 24 hrs by MTT assay; format: cell-based; details: j774, 24 h
[15] = tested on: Toxoplasma gondii; assay: Antiprotozoal activity against tachyzoite stage of Toxoplasma gondii RH assessed as viability at 500 uM after 4 hrs by trypan blue exclusion assay relative to control; format: functional
[16] = Inhibition of ferriprotoporphyrin-9 biocrystallization by micro-ELISA
[17] = tested on: J774; assay: Cytotoxicity against mouse J774 cells at 10 ug/mL after 24 hrs by MTT assay; format: cell-based; details: j774, 24 h
[18] = tested on: Trichomonas vaginalis; assay: Trichomonastatic activity against Trichomonas vaginalis JH31A at 1 ug/ml after 24 hrs by Neubauer chamber analysis relative to control; format: functional
[19] = tested on: Leishmania braziliensis; assay: Antiprotozoal activity against metacyclic promastigote stage of Leishmania braziliensis MHOM/PE/95/LQ2 assessed as growth inhibition after 72 hrs by Alamar Blue assay; format: functional, organism-based; details: for IC50: MHOM/PE/95/LQ2, 72 h
[20] = tested on: Trichomonas vaginalis; assay: Trichomonastatic activity against Trichomonas vaginalis JH31A at 1 ug/ml after 48 hrs by Neubauer chamber analysis relative to control; format: functional
[21] = tested on: J774; assay: Cytotoxicity against mouse J774 cells at 1 ug/mL after 24 hrs by MTT assay; format: cell-based; details: j774, 24 h
[22] = tested on: Trichomonas vaginalis; assay: Trichomonastatic activity against Trichomonas vaginalis JH31A at 10 ug/ml after 24 hrs by Neubauer chamber analysis relative to control; format: functional

SMILES: Br.O=C1CN(CCCCCN2CCCCCC2)c2ccc([N+](=O)[O-])cc2N1
- Activity [1]: inactive
- Activity [2]: 0%
- Activity [3]: 97.73%
- Activity [4]: 100%
- Activity [6]: Active
- Activity [7]: 88%
- Activity [8]: 23.84%
- Activity [9]: 82%
- Activity [10]: 0%
- Activity [11]: 8.35%
- Activity [12]: 100%
- IC50 [13]: 5.72 µg/mL
- Activity [14]: 59.14%
- Activity [15]: 0%
- IC50 [16]: > 2000 µg/mL
- Activity [17]: 5.78%
- Activity [21]: 0%
- Activity [18]: 2.35%
- growth inhibition (GI) [19]: Dose-dependent effect
- IC50 [19]: 39.3 µg/mL
- Activity [22]: 12.94%
- Activity [20]: 0%

SMILES: Br.CN1C(=O)CN(CCCCCN2CCCC2)c2ccc([N+](=O)[O-])cc21
- Activity [1]: inactive
- Activity [2]: 38%
- Activity [3]: 6.36%
- Activity [4]: 100%
- Activity [5]: 89.25%
- Activity [7]: 89%
- Activity [8]: 2.51%
- Activity [9]: 84%
- Activity [10]: 67.7%
- Activity [11]: 0%
- Activity [12]: 100%
- IC50 [13]: > 10 µg/mL
- Activity [14]: 49.25%
- Activity [15]: 58%
- IC50 [16]: > 2000 µg/mL
- Activity [17]: 0%
- Activity [21]: 0%
- Activity [18]: 0%
- growth inhibition (GI) [19]: Dose-dependent effect
- IC50 [19]: 5.3 µg/mL
- Activity [20]: 4.1%

SMILES: Br.CN1C(=O)CN(CCCCCN2CCc3ccccc3C2)c2ccc([N+](=O)[O-])cc21
- Activity [1]: inactive
- Activity [3]: 19.78%
- Activity [4]: 100%
- Activity [8]: 15.62%
- Activity [10]: 23.28%
- Activity [11]: 11.77%
- Activity [12]: 100%
- IC50 [13]: 6.47 µg/mL
- Activity [14]: 99.44%
- IC50 [16]: 950 µg/mL
- Activity [17]: 24.44%
- Activity [18]: 4.71%
- growth inhibition (GI) [19]: inactive
- Activity [22]: 70.98%
- Activity [20]: 4.1%

SMILES: CC1CS(=O)(=O)CCN1/N=C/c1ccc([N+](=O)[O-])o1 (stereo not given) [NIFURTIMOX]
- Activity [3]: 98.73%
- Activity [8]: 90%
- Activity [11]: 75.5%
- Activity [14]: 25.9%
- Activity [17]: 0.6%
- Activity [21]: 0%

Continued, in another order:

- IC50 [13]: > 10 µg/mL
- IC50 [16]: 1950 µg/mL
SMILES: Br.CN1C(=O)CN(CCCCCN2CCCCCC2)c2ccc([N+](=O)[O-])cc21
- Activity [1]: inactive
- Activity [2]: 0%
- Activity [3]: 65.46%
- Activity [4]: 100%
- Activity [5]: 91.61%
- Activity [6]: Active
- Activity [7]: 81%
- Activity [8]: 15.38%
- Activity [9]: 77%
- Activity [10]: 70.41%
- Activity [11]: 0%
- Activity [12]: 100%
- Activity [14]: 75.75%
- Activity [15]: 71%
- Activity [17]: 20.24%
- Activity [18]: 10.98%
- growth inhibition (GI) [19]: Dose-dependent effect
- IC50 [19]: 5.3 µg/mL
- Activity [20]: 2.87%

- IC50 [13]: > 10 µg/mL
- IC50 [16]: 1530 µg/mL
SMILES: Br.O=C1CN(CCCCCN2CCc3ccccc3C2)c2ccc([N+](=O)[O-])cc2N1
- Activity [1]: inactive
- Activity [3]: 87.83%
- Activity [4]: 100%
- Activity [8]: 56.77%
- Activity [10]: 44.06%
- Activity [11]: 12.49%
- Activity [12]: 100%
- Activity [14]: 100%
- Activity [17]: 13.25%
- Activity [21]: 9.89%
- Activity [18]: 3.53%
- growth inhibition (GI) [19]: Dose-dependent effect
- IC50 [19]: 31.3 µg/mL
- Activity [22]: 83.76%
- Activity [20]: 0%

- IC50 [13]: > 10 µg/mL
- IC50 [16]: > 2000 µg/mL
SMILES: Br.CN1C(=O)CN(CCCCCN2CCCCC2)c2ccc([N+](=O)[O-])cc21
- Activity [1]: inactive
- Activity [2]: 36%
- Activity [3]: 79.12%
- Activity [4]: 100%
- Activity [5]: 92.63%
- Activity [7]: 96%
- Activity [8]: 60.68%
- Activity [9]: 90%
- Activity [10]: 86.52%
- Activity [11]: 7.93%
- Activity [12]: 100%
- Activity [14]: 61.38%
- Activity [15]: 40%
- Activity [17]: 11.57%
- Activity [18]: 0%
- growth inhibition (GI) [19]: Dose-dependent effect
- IC50 [19]: 9.57 µg/mL
- Activity [20]: 0%

- IC50 [13]: > 10 µg/mL
- IC50 [16]: > 2000 µg/mL
SMILES: Br.O=C1CN(CCCCCN2CCCCC2)c2ccc([N+](=O)[O-])cc2N1
- Activity [1]: inactive
- Activity [2]: 0%
- Activity [3]: 82.4%
- Activity [4]: 100%
- Activity [6]: Active
- Activity [7]: 92%
- Activity [8]: 17.68%
- Activity [9]: 68%
- Activity [10]: 5.74%
- Activity [11]: 1.78%
- Activity [12]: 99.37%
- Activity [14]: 3.36%
- Activity [15]: 0%
- Activity [17]: 0%
- Activity [21]: 0%
- Activity [18]: 0%
- growth inhibition (GI) [19]: Dose-dependent effect
- IC50 [19]: 64.6 µg/mL
- Activity [22]: 20.94%
- Activity [20]: 0%

- IC50 [13]: > 10 µg/mL
- IC50 [16]: > 2000 µg/mL
SMILES: Br.CN(C)CCCCCN1CC(=O)N(C)c2cc([N+](=O)[O-])ccc21
- Activity [1]: inactive
- Activity [2]: 81%
- Activity [4]: 100%
- Activity [7]: 81%
- Activity [9]: 90%
- Activity [10]: 11.26%
- Activity [12]: 100%
- Activity [15]: 93%
- Activity [18]: 8.98%
- growth inhibition (GI) [19]: Dose-dependent effect
- IC50 [19]: 8.15 µg/mL
- Activity [22]: 45.71%
- Activity [20]: 0%

- IC50 [16]: 40 µg/mL (≈ 125 µM)
SMILES: CCN(CC)CCCC(C)Nc1ccnc2cc(Cl)ccc12 (stereo not given) [CHLOROQUINE]
